Laboratory results reported in US20240349724A1, “ANTIMICROBIAL COMPOSITIONS EFFECTIVE AGAINST BACTERIA AND FUNGUS” (TerMir Inc., priority 2017, published 2024).
Values after ≈ are worked out from the molar mass of the structure shown. Values joined by “and” are separate entries in the source; they are usually repeats but may differ in a detail not shown here. Identical values can stand only once. Like-named read-outs stand apart in the source and are kept apart here.

Key:
[1] = test system: Altemaria alternata ATCC 66981; experiment: Mold microplate MIC (visible growth); type: cell-based, Alternaria alternata; conditions: for Reduced PhlB: fraction of PhlB dosage
Experimental: (§1) Mold: Culture Curvularia and Aspergillus on SDA at 35±1° C. for 7 days or until good sporulation is obtained. Culture Alternaria at 30±1° C. for 7 days or until good sporulation is obtained. Harvest sporulating colonies with 0.8-0.9% saline solution and transfer to a fresh tube. Allow heavy particles to settle for 5 minutes and transfer the upper homogeneous suspension to a sterile tube and mix via vortex for 15 seconds. Read and adjust the optical density to OD (530 nm): • Alternaria: 0.25-0.30 • Aspergillus: 0.09-0.13 • Curvularia: 0.25-0.30
(§2) During the Candida adjusted inoculum preparation, saline cell suspensions with optical densities equal to that of a 0.5 McFarland Equivalence Turbidity Standard were diluted 1:1000 in RPMI 1640, rather than 1:2000 as instructed in CLSI M27-A3. Alternaria was cultured at 30±1° C. for 7 days or until good sporulation was obtained.
(§3) Data Analysis/Reporting: Read microplates for visible growth (turbidity). Use the minimum inhibitory concentration (MIC).

[2] = test system: Ralstonia insidiosa ATCC 49129; experiment: microbe, parasite or virus in culture; type: cell-based; conditions: for Reduced PhlB: fraction of PhlB dosage
Experimental: (§4) Tests are conducted according to the 2015 Clinical and Laboratory Standards Institute Method M07-A10: Methods for dilution antimicrobial susceptibility tests for bacteria that grow aerobically. Sterile 96-well microplates are prepared with Meuller Hinton Broth containing varying amounts of test compounds in each well (100 μL per well). Then according to the CLSI M07-A10 microdilution assay, a row with a 2-fold serial dilution series with 10 different concentrations of the test compound are prepared along with three replicate rows for each combination of test organism and test compound. According to the CLSI M07-A10 microdilution combination (checkerboard) assay, an 8×8 well matrix containing two 2-fold serial dilution series of two test compounds arranged perpendicular to one another so that each concentration of compound 1 is prepared once with each combination of compound 2. One column with a 2-fold serial dilution series with 8 different concentrations of test compound 1 is prepared along with one column with a 2-fold serial dilution series with 8 different concentrations of test compound 2. One microplate for each combination of test organism and pair of test compounds is prepared in addition to a cell suspension of each test microorganism equivalent to a 0.5 McFarland turbidity standard using fresh isolated colonies grown on Meuller Hinton Agar. Each cell suspension is diluted in a 1:20 ratio in Meuller Hinton Broth and the microplate is inoculated by adding add 10 μL to each well. Microplates then incubate according to CLSI M07-A10.
(§5) Microplates are read and data was interpreted according to the following procedure: The minimum inhibitory concentration (MIC) is the minimum concentration of the test compound needed to cease growth of the organism, it encompasses microbe death as well as microbe loss of the ability to divide and grow. Supplemental light was used during the 24-hour incubation period. Light intensity ranged from 1259 and 4203 lux.

[3] = test system: Candida albicans ATCC 10231; experiment: Yeast microplate MIC (visible growth); type: cell-based; conditions: for Reduced PhlB: fraction of PhlB dosage
Experimental: Yeast: Culture Candida on Sabouraud Dextrose Agar (SDA) at 35±1° C. for 24-48 hours until colonies are approximately 2-3 mm in diameter. Suspend ˜5 colonies in 5 mL of sterile 0.8-0.9% saline solution. Vortex for 15 seconds. Adjust the cell density to that of a 0.5 McFarland Equivalence Turbidity Standard. Prepare adjusted inoculum: Dilute the cell suspension 1:2000 in RPMI 1640. Inoculate microplates by adding 100 μL to each applicable well.
as §2, §3

[4] = test system: Curvularia lunata ATCC 12017; experiment: Mold microplate MIC (visible growth); type: cell-based; conditions: for Reduced PhlB: fraction of PhlB dosage
Experimental: as §1, §3

[5] = test system: Aspergillus niger ATCC 6275; experiment: Mold microplate MIC (visible growth); type: cell-based; conditions: for Reduced PhlB: fraction of PhlB dosage
Experimental: as §1, §3

[6] = test system: Stenotrophomonos maltophilia ATCC 13637; experiment: CLSI M07-A10 microdilution / checkerboard MIC; type: cell-based, Stenotrophomonas maltophilia; conditions: for Reduced PhlB: fraction of PhlB dosage
Experimental: as §4, §5

[7] = test system: Bacillus subtilis ATCC 15841; experiment: CLSI M07-A10 microdilution / checkerboard MIC; type: cell-based; conditions: for Reduced PhlB: fraction of PhlB dosage
Experimental: as §4, §5

[8] = test system: Rhizobium radiobacter ATCC 70069; experiment: CLSI M07-A10 microdilution / checkerboard MIC; type: cell-based; conditions: for MIC: Agrobacterium radiobacter, ATCC70069, 24 h, read-out: MIC at 24 hours in Light, Fluorescein, R. radiobacter; for Reduced PhlB: fraction of PhlB dosage
Experimental: as §4, §5

Gram(+) bacteria = conditions: background statement; cited from earlier work
Gram(−) bacteria = conditions: PhlB on its own; background statement; cited from earlier work
[9] = A. alternata, alone ('Trial' line)
[10] = R. insidiosa, alone ('Trial' line)
[11] = C. albicans, alone ('Trial' line)
[12] = S. maltophilia, alone ('Trial' line)
[13] = B. subtilis, alone ('Trial' line)
[14] = R. radiobacter, alone ('Trial' line)

## O=C1OC2(c3ccc(O)cc3Oc3cc(O)ccc32)c2ccccc21 [Fluorescein, 3′,6′-dihydroxyspiro[2-benzofuran-3,9′-xanthene]-1-one]
[1]; Alternaria alternata, ATCC66981, 24 h, read-out: MIC at 24 hours in Light, Fluorescein, A. alternata, alone ('Trial' line)
  MIC: 15.7 µM (≈ 5.21 µg/mL)
[2]; Ralstonia insidiosa, ATCC49129, 24 h, read-out: MIC at 24 hours in Light, Fluorescein, R. insidiosa, alone ('Trial' line)
  MIC: 7.8 µM
[3]; Candida albicans, ATCC10231, 24 h, read-out: MIC at 24 hours in Light, Fluorescein, C. albicans, alone ('Trial' line)
  MIC: 2000 µM (≈ 665 µg/mL)
[4]; Curvularia lunata, ATCC12017, 24 h, read-out: MIC at 24 hours in Light, Fluorescein, C. lunata, alone ('Trial' line)
  MIC: 15.7 µM (≈ 5.21 µg/mL)
[5]; Aspergillus niger, ATCC6275, 24 h, read-out: MIC at 24 hours in Light, Fluorescein, A. niger, alone ('Trial' line)
  MIC: 1.86 µM (≈ 0.618 µg/mL)
[6]; Stenotrophomonas maltophilia, ATCC13637, 24 h, read-out: MIC at 24 hours in Light, Fluorescein, S. maltophilia, alone ('Trial' line)
  MIC: 7.8 µM
[7]; Bacillus subtilis, ATCC15841, 24 h, read-out: MIC at 24 hours in Light, Fluorescein, B. subtilis, alone ('Trial' line)
  MIC: 62.5 µM
[8]; alone ('Trial' line)
  MIC: 0.98 µM
[8]; combined with PHL B (c2 of same line)
  MIC: 0.49 µM

## N.N.O=S(=O)(O)O [Ammonium sulfate, ammonium sulfate]
[1]; [9]
  MIC at 24 hours in Light, Ammonium sulfate: 46874 µM
[2]; [10]
  MIC at 24 hours in Light, Ammonium sulfate: 750000 µM
[3]; [11]
  MIC at 24 hours in Light, Ammonium sulfate: 750000 µM
[5]; A. niger, alone ('Trial' line)
  MIC at 24 hours in Light, Ammonium sulfate: 93749 µM
[6]; [12]
  MIC at 24 hours in Light, Ammonium sulfate: 375000 µM
[7]; [13]
  MIC at 24 hours in Light, Ammonium sulfate: 93800 µM
[8]; [14]
  MIC at 24 hours in Light, Ammonium sulfate: 93800 µM

## [Na+].[Na+].[O-]B1OB2OB([O-])OB(O1)O2 [NaTetraBorate, sodium tetraborate]
[1]; [9]
  MIC at 24 hours in Light, NaTetraBorate: 625160 µM
[2]; [10]
  MIC at 24 hours in Light, NaTetraBorate: 10000 µM
[3]; [11]
  MIC at 24 hours in Light, NaTetraBorate: 9999 µM
[4]; C. lunata, alone ('Trial' line)
  MIC at 24 hours in Light, NaTetraBorate: 4999.50 µM
[5]; A. niger, alone ('Trial' line)
  MIC at 24 hours in Light, NaTetraBorate: 2673 µM
[6]; [12]
  MIC at 24 hours in Light, NaTetraBorate: 5000 µM
[7]; [13]
  MIC at 24 hours in Light, NaTetraBorate: 10000 µM
[8]; [14]
  MIC at 24 hours in Light, NaTetraBorate: 2500 µM

## O=C1OC2(c3cc(Br)c([O-])c(Br)c3Oc3c2cc(Br)c([O-])c3Br)c2c(Cl)c(Cl)c(Cl)c(Cl)c21.[Na+].[Na+] [PHL B, disodium salt of 2′,4′,5′,7′-tetrabromo-4,5,6,7-tetrachlorofluorescein]
[1]; [9]
  MIC at 24 hours in Light, PHL B: 1.93 µM and 3.62 µM
[1]; A. alternata, with Ammonium sulfate
  Reduced PhlB: ¼ and ½
[1]; A. alternata, with Fluorescein
  Reduced PhlB: ¼
[1]; A. alternata, with NaTetraBorate
  Reduced PhlB: ½
[2]; R. insidiosa, with Fluorescein
  Reduced PhlB: ⅛ and ¼ and ½ and 1/16
[2]; R. insidiosa, with NaTetraBorate
  Reduced PhlB: ⅛ and ¼ and ½
[3]; [11]
  MIC at 24 hours in Light, PHL B: 125 µM and 125.36 µM and 62.68 µM
[3]; C. albicans, with Ammonium sulfate
  Reduced PhlB: 1/125 and 1/64 and 1/32 and 1/16 and ⅛ and ¼ and ½
[3]; C. albicans, with Fluorescein
  Reduced PhlB: 1/64 and 1/32 and 1/16 and ⅛ and ¼ and ½
[3]; C. albicans, with NaTetraBorate
  Reduced PhlB: 1/128 and 1/64 and 1/32 and 1/16 and ⅛ and ¼ and ½
[4]; C. lunata, with Ammonium sulfate
  Reduced PhlB: ⅛ and ¼ and ½
[4]; C. lunata, with Fluorescein
  Reduced PhlB: ¼ and ½
[4]; C. lunata, with NaTetraBorate
  Reduced PhlB: ¼ and ½
[5]; A. niger, alone ('Trial' line)
  MIC at 24 hours in Light, PHL B: 1.93 µM and 3.62 µM
[5]; A. niger, with Ammonium sulfate
  Reduced PhlB: ¼ and ½
[5]; A. niger, with Fluorescein
  Reduced PhlB: ½
[5]; A. niger, with NaTetraBorate
  Reduced PhlB: ½
Gram(+) bacteria
  control of Gram(+) bacteria: control Gram(+) bacteria at millimolar to micromolar concentrations
[6]; S. maltophilia, with Fluorescein
  Reduced PhlB: ⅛ and ¼ and ½ and 1/16
[6]; S. maltophilia, with NaTetraBorate
  Reduced PhlB: ⅛ and ¼ and ½
Gram(−) bacteria
  control of Gram(−) bacteria: does not control Gram(−) bacteria
[7]; [13]
  MIC at 24 hours in Light, PHL B: 0.98 µM and 0.49 µM
[7]; B. subtilis, with Fluorescein
  Reduced PhlB: ⅛ and ¼ and ½ and 1/16
[7]; B. subtilis, with NaTetraBorate
  Reduced PhlB: 3/98 and 3/49 and ⅛ and ¼ and ½
[8]; [14]
  MIC at 24 hours in Light, PHL B: 0.12 µM and 0.24 µM
[8]; R. radiobacter, with Fluorescein
  Reduced PhlB: ¼ and ½ and ⅛
[8]; R. radiobacter, with NaTetraBorate
  Reduced PhlB: ¼ and ½
